# Data as given in paper PMC7835950 (Frontiers in Chemistry, 2021).
# Where “and” joins values, the source holds several entries; their conditions need not be identical. Equal values may be shown once.
# B1: OADH (Rattus norvegicus) (protein)
# chain: MASATVAAAGRALRRAVPLLRRSYQTERGVYGYRPRKAGSGEPRGDRARPSVDHGLARLVTVYCEHGHKAAQINPLFPGQALLDTVPEIQALVQTLQGPFTTTGLLNMGKEEASLEEVLAYLNHIYCGPISIETAQLQSQEEKDWFARRFEELKKETFTTEERKHLSKLLLESQEFDHFLATKFATVKRYGGEGAESMMGFFHELLKLSAYGGITDIIIGMPHRGRLNLLTGLLQLPPELMFRKMRGLSEFPENVAAIGDVLSHLTSSVDLDFGAHRPLHVTMLPNPSHLEAINPVAVGKTRGRQQSQEDGDYSPNGSAQPGDKVICLQVHGDASFCGQGIVLETFTLSNLPHFRIGGSIHLIVNNQLGYTTPAERGRSSLYSSDIGKLVGCAIIHVNGDSPEEVVRATRLAFEYQRQFRKDVIIDLLCYRQWGHNELDEPFFTNPVMYKIIRARKSIPDTYAEHLIASGLMTQEEVSDIKASYYAKLNGHLANVAHYSPPAPHLQARWQGLVQPAACVTTWDTGVPLELLRFVGVKSVEVPEELQLHSHLLKMYVQSRMEKVKNGTNLDWATAETLALGSLLAQGFNVRLSGQDVGRGTFSQRHAMVVCQNTDDVYIPLNHMDPNQKGFLEVSNSPLSEEAVLGFEYGMSIESPKLLPLWEAQFGDFFNGAQIIFDTFISGGEAKWLLQSGLVILLPHGYDGAGPDHSSCRIERFLQMCDSAEEGVDSDTVNMFVVHPTTPAQYFHLLRRQMMRNFRKPLIVASPKMLLRYPVAVSTLEEMAPGTAFKPVIGDSSVDPKNVKTLIFCSGKHFYALLKQRESLGAKKRDFAIIRLEELCPFPLDSLQQEMGKYKHVQDIIWSQEEPQNMGPWSFVYPRFEKQLACKLRLVSRPPLPAPAVGIGTVHQQQHEAILFKTFTS
# B2: OGDH (Rattus norvegicus) (protein)
# chain: SAPVAAEPFLSGTSSNYVEEMYCAWLENPKSVHKSWDIFFRNTNAGAPPGTAYQSPLSLSRSSLATMAHAQSLVEAQPNVDKLVEDHLAVQSLIRAYQIRGHHVAQLDPLGILDADLDSSVPADIISSTDKLGFYGLHESDLDKVFHLPTTTFIGGQEPALPLREIIRRLEMAYCQHIGVEFMFINDLEQCQWIRQKFETPGIMQFTNEEKRTLLARLVRSTRFEEFLQRKWSSEKRFGLEGCEVLIPALKTIIDMSSANGVDYVIMGMPHRGRLNVLANVIRKELEQIFCQFDSKLEAADEGSGDMKYHLGMYHRRINRVTDRNITLSLVANPSHLEAADPVVMGKTKAEQFYCGDTEGKKVMSILLHGDAAFAGQGIVYETFHLSDLPSYTTHGTVHVVVNNQIGFTTDPRMARSSPYPTDVARVVNAPIFHVNSDDPEAVMYVCKVAAEWRNTFHKDVVVDLVCYRRNGHNEMDEPMFTQPLMYKQIRKQKPVLQKYAELLVSQGVVNQPEYEEEISKYDKICEEAFTRSKDEKILHIKHWLDSPWPGFFTLDGQPRSMTCPSTGLEEDILTHIGNVASSVPVENFTIHGGLSRILKTRRELVTNRTVDWALAEYMAFGSLLKEGIHVRLSGQDVERGTFSHRHHVLHDQNVDKRTCIPMNHLWPNQAPYTVCNSSLSEYGVLGFELGFAMASPNALVLWEAQFGDFNNMAQCIIDQFICPGQAKWVRQNGIVLLLPHGMEGMGPEHSSARPERFLQMCNDDPDVLPNLQEENFDISQLYDCNWIVVNCSTPGNFFHVLRRQILLPFRKPLIVFTPKSLLRHPEARTSFDEMLPGTHFQRVIPEDGPAAQNPDKVKRLLFCTGKVYYDLTRERKARDMAEEVAITRIEQLSPFPFDLLLKEAQKYPNAELAWCQEEHKNQGYYDYVKPRLRTTIDRAKPVWYAGRDPAAAPATGNKKTHLTELQRFLDTAFDLDAFKKFS
# notes: the tissue fractions with the complexes enriched to a degree allowing for a robust detection of the enzymatic activities, have been used; from tissue; host or cells: rat liver
# Tests used:
# [1] = Stability of the phosphonates and their esters during storage, by NMR; type: physicochemical; conditions: for decrease of purity: pure oil, room temperature, argon atmosphere, 6 months
# Description: Stability of the purified phosphonates and their esterified precursor was analyzed by NMR after storage under the inert (pure argon) or ambient (air) atmosphere and in water solutions. ^1H, ^13C and ^31P NMR spectra were recorded at 400, 100.6, and 161.9 MHz, respectively with a Bruker Avance 400 spectrometer. Chemical shifts were calculated using D2O or CDCl3 as reference standards for trisodium salts and triesters, respectively. The spectra of the phosphonates and their esters before and after storage are shown in Supplementary Figures 1, 2 correspondingly.
# [2] = substrate: O=C(O)CCCC(=O)C(=O)O; test: OADH reaction catalyzed by the enzyme preparation from rat liver, low [OA] (high-affinity OA sites); type: biochemical; conditions: other: liver preparation, pH 7.0
# Description: (§1) Enzymes catalyzing OGDH and OADH reactions were enriched from rat hearts and livers using polyethylene glycol precipitation, as previously described (Artiukhov et al., [2020]).
# (§2) The enzyme activities were assayed in the medium (pH 7.0) containing 50 mM MOPS, 1 mM ThDP, 1 mM MgCl2, 1 mM CaCl2, 1 mM dithiothreitol 0.15 mM Coenzyme A, 0.25 mM NAD^+ and various concentrations of 2-oxo substrates (0–10 mM OG or OA) and their phosphonate analogs (0–5,000 μM SP, GP, or AP). Reactions were started by addition of the enzyme preparations to the assay media. The amount of enzyme preparations (0.074 mg protein for the preparation from liver and 0.023 mg protein for the preparation from heart) were chosen to induce the lowest reliably measured reaction rate (ΔA340 = 0.001/min) at 0.01 mM OA without the phosphonates.
# (§3) Reaction rates were calculated from linear parts of the product accumulation curves (up to 10 min, dependent on the reaction rate), excluding the initial region, where mixing the reagents and solubilization of the preparation affected the optical density. […]
# (§4) The kinetic data were also analyzed by linear regression, using the known methods of the linearization of the Michaelis-Menten equation in the Lineweaver-Burk ( 1/a=1/Amax(1+Km/[S]) ) and Eadie-Hofstee ( a=Amax−Kmv/[S] ) coordinates. […]
# [3] = substrate: O=C(O)CCCC(=O)C(=O)O; test: OADH reaction catalyzed by the enzyme preparation from rat liver, high [OA] (low-affinity OA sites); type: biochemical; conditions: other: liver preparation, pH 7.0
# Description: as §1, §2, §3, §4
# [4] = substrate: O=C(O)CCCC(=O)C(=O)O; test: OADH reaction (OA saturation) catalyzed by the enzyme preparation from rat heart; type: biochemical; conditions: other: heart preparation; pH 7.0
# Description: as §1, §2, §3, §4
# [5] = substrate: O=C(O)CCC(=O)C(=O)O; test: purified protein, by the assay type; conditions: pH 7.0
# [6] = 0.2 M aqueous solution, 5 days of shelf storage, 31P NMR
molecule,measurement,setting,value
"CCOC(=O)CCCC(=O)P(=O)(OCC)OCC [TEGP, triethyl glutaryl phosphonate]",compound preserved,[1]; [6],about 80%
same,decrease of purity,[1],4–6%
"CCOC(=O)CCC(=O)P(=O)(OCC)OCC [TESP, triethyl succinyl phosphonate]",decrease of purity,[1],4–6%
"COC(=O)CCCCC(=O)P(=O)(OC)OC [TMAP, trimethyl adipoyl phosphonate]",compound decomposed,[1]; [6],90%
same,decrease of purity,[1],4–6%
B1,Km,[2],8 ± 1 µM and 7.7 ± 0.8 µM
B2,Km,[3],450 ± 120 µM
same,Km,[4],550 ± 70 µM
same,Km,[5]; other: heart preparation,450 ± 60 µM
same,Km,[5]; other: liver preparation,270 ± 60 µM
